Measured values: the supplement of paper PMC6045584
± gives the standard deviation of the averaged measurements.

Tests used:
BLEOMYCIN = compound: Cc1c(N)nc([C@H](CC(N)=O)NC[C@H](N)C(N)=O)nc1C(=O)N[C@H](C(=O)N[C@H](C)[C@@H](O)[C@H](C)C(=O)N[C@H](C(=O)NCCc1nc(-c2nc(C(=O)NCCC[S+](C)C)cs2)cs1)[C@@H](C)O)[C@@H](OC1OC(CO)C(O)C(O)C1OC1OC(CO)C(O)C(OC(N)=O)C1O)c1cnc[nH]1 [BLEOMYCIN]; assay: surviving fraction relative to DMSO-only wells; higher = less growth inhibition; conditions: exposure time: 5 days
How it was run: (§1)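 Surviving fraction is CellTiter-Glo luminescence divided by the median of wells given DMSO only. For this, log-phase tumour cell lines went into 384-well plates at 250–500 cells per well and, 24 hours later, into five days of continuous inhibitor exposure at 0.5, 1, 5, 10, 50, 100, 500 and 1000 nM. Lines were screened three times and retained only if replicate Pearson r >0.7 and median Z' >0.3.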

BEZ-235 = compound: Cn1c(=O)n(-c2ccc(C(C)(C)C#N)cc2)c2c3cc(-c4cnc5ccccc5c4)ccc3ncc21 [BEZ-235]; assay: as above; conditions: exposure time: 5 days
How it was run: as §1

Test System	surviving fraction (BLEOMYCIN; 0.5 nM)	surviving fraction (BLEOMYCIN; 1 nM)	surviving fraction (BLEOMYCIN; 5 nM)	surviving fraction (BLEOMYCIN; 10 nM)	surviving fraction (BLEOMYCIN; 50 nM)	surviving fraction (BLEOMYCIN; 100 nM)	surviving fraction (BLEOMYCIN; 500 nM)	surviving fraction (BLEOMYCIN; 1000 nM)	surviving fraction (BEZ-235; 0.5 nM)	surviving fraction (BEZ-235; 1 nM)	surviving fraction (BEZ-235; 5 nM)	surviving fraction (BEZ-235; 10 nM)	surviving fraction (BEZ-235; 50 nM)	surviving fraction (BEZ-235; 100 nM)	surviving fraction (BEZ-235; 500 nM)	surviving fraction (BEZ-235; 1000 nM)
SUM159 BREAST	1.07 ± 0.18	1.02 ± 0.094	1.01 ± 0.082	0.999 ± 0.086	0.948 ± 0.034	0.908 ± 0.031	0.673 ± 0.13	0.246 ± 0.065	1.11 ± 0.11	1.11 ± 0.099	1.1 ± 0.065	1.09 ± 0.069	0.922 ± 0.062	0.635 ± 0.065	0.228 ± 0.014	0.168 ± 0.015
SYO1 SYNOVIAL	0.809 ± 0.058	0.778 ± 0.044	0.753 ± 0.035	0.695 ± 0.029	0.45 ± 0.014	0.355 ± 0.032	0.104 ± 0.019	0.0704 ± 0.019	1.02 ± 0.036	0.973 ± 0.054	0.942 ± 0.065	0.96 ± 0.023	0.705 ± 0.04	0.457 ± 0.017	0.196 ± 0.011	0.117 ± 0.0081
T47D BREAST	0.947 ± 0.019	0.915 ± 0.011	0.891 ± 0.02	0.9369 ± 0.0063	0.951 ± 0.02	0.923 ± 0.039	0.693 ± 0.011	0.57 ± 0.03	1.07 ± 0.034	1.05 ± 0.015	1.04 ± 0.019	1.02 ± 0.016	0.89 ± 0.015	0.7209 ± 0.0056	0.47 ± 0.016	0.312 ± 0.0077
U2OS BONE	0.904 ± 0.028	0.942 ± 0.05	0.933 ± 0.04	0.9 ± 0.039	1.01 ± 0.023	0.8983 ± 0.0064	0.734 ± 0.017	0.617 ± 0.011	1.03 ± 0.049	1.058 ± 0.0092	1.06 ± 0.011	1.06 ± 0.013	0.9133 ± 0.0045	0.78 ± 0.038	0.293 ± 0.006	0.256 ± 0.013
VCAP PROSTATE	0.905 ± 0.018	0.953 ± 0.077	1.07 ± 0.12	1.05 ± 0.12	1.07 ± 0.12	1.02 ± 0.078	0.84 ± 0.024	0.889 ± 0.081	1.08 ± 0.1	0.994 ± 0.09	1.12 ± 0.082	1.13 ± 0.12	0.902 ± 0.1	0.867 ± 0.056	0.422 ± 0.053	0.402 ± 0.0052
VP229 BREAST	0.776 ± 0.093	0.759 ± 0.052	0.754 ± 0.081	0.711 ± 0.072	0.915 ± 0.089	0.893 ± 0.093	0.837 ± 0.08	0.665 ± 0.076	1.36 ± 0.32	1.22 ± 0.075	1.25 ± 0.089	1.04 ± 0.035	0.969 ± 0.094	0.751 ± 0.025	0.268 ± 0.008	0.159 ± 0.008
YAMATO SYNOVIAL	0.889 ± 0.13	0.929 ± 0.095	0.955 ± 0.081	1.03 ± 0.075	1.21 ± 0.083	1.11 ± 0.08	0.871 ± 0.088	0.796 ± 0.033	1.28 ± 0.087	1.26 ± 0.12	1.34 ± 0.084	1.12 ± 0.048	0.923 ± 0.043	0.849 ± 0.12	0.47 ± 0.038	0.429 ± 0.016
ZR751 BREAST	0.985 ± 0.037	0.975 ± 0.083	0.925 ± 0.1	0.957 ± 0.19	0.905 ± 0.073	0.924 ± 0.17	0.897 ± 0.15	0.69 ± 0.12	1.03 ± 0.1	1.03 ± 0.23	0.912 ± 0.12	0.907 ± 0.093	0.725 ± 0.063	0.519 ± 0.1	0.226 ± 0.011	0.176 ± 0.011
